From patent US12077503B2, “Substituted cyclic amides and their use as herbicides” (FMC CORPORATION, priority 2015, dated 2024)

Assays:
Assay type in all cases: in vivo
[1] = system: barnyardgrass (Echinochloa crus-galli); assay: Test G Pre-Emergence Protocol; settings: Echinochloa crus-galli, pre-emergence, 312 h, evaluated after 13 days; for pest or weed control at 15.625 g/ha: 15.625 g ai/ha, read-out: Barnyard grass damage rating (100=total damage to plant; 0=no damage to plant); for pest or weed control at 62.5 g/ha: 62.5 g ai/ha, 100=total damage to plant, 0=no damage to plant, read-out: plant damage rating, Barnyardgrass; for pest or weed control at 250 g/ha: 250 g ai/ha, read-out: Barnyardgrass damage rating (100=total damage to plant; 0=no damage to plant)
How it was run: (§1)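 Pre-emergence spray, 15.625/62.5/250 g/ha, vehicle acetone:water 50:50 + 0.5% Tween 20, applied 1 d after sowing. Glasshouse 24/16° C, 14 h light, 65% RH, watered twice daily. Visual damage rating at 13 d, 0–100 scale.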

corn (Zea mays) [2] = assay: Test G Pre-Emergence Protocol; settings: Zea mays, pre-emergence, 312 h, evaluated after 13 days; for plant injury at 15.625 g/ha: 15.625 g ai/ha; for plant injury at 15.625 g/ha / plant injury at 250 g/ha: read-out: Corn damage rating (100=total damage to plant; 0=no damage to plant); for plant injury at 62.5 g/ha: 62.5 g ai/ha, 100=total damage to plant, 0=no damage to plant, read-out: plant damage rating, Corn; for plant injury at 250 g/ha: 250 g ai/ha
How it was run: as §1

[3] = system: giant foxtail (Setaria faberi); assay: Test G Pre-Emergence Protocol; settings: Setaria faberi, pre-emergence, 312 h, evaluated after 13 days; for pest or weed control at 15.625 g/ha: 15.625 g ai/ha; for pest or weed control at 15.625 g/ha / pest or weed control at 250 g/ha: read-out: Foxtail, Giant damage rating (100=total damage to plant; 0=no damage to plant); for pest or weed control at 62.5 g/ha: 62.5 g ai/ha, 100=total damage to plant, 0=no damage to plant, read-out: plant damage rating, Foxtail, Giant; for pest or weed control at 250 g/ha: 250 g ai/ha
How it was run: as §1

[4] = system: ivy-leaved morning glory (Ipomoea hederacea); assay: Test G Pre-Emergence Protocol; settings: Ipomoea, pre-emergence, 312 h, evaluated after 13 days; for pest or weed control at 15.625 g/ha: 15.625 g ai/ha, read-out: Morning-glory, Ivy-leaved damage rating (100=total damage to plant; 0=no damage to plant); for pest or weed control at 62.5 g/ha: 62.5 g ai/ha, 100=total damage to plant, 0=no damage to plant, read-out: plant damage rating, Morningglory, Ivy-leaved; for pest or weed control at 250 g/ha: 250 g ai/ha, read-out: Morningglory, Ivy-leaved damage rating (100=total damage to plant; 0=no damage to plant)
How it was run: as §1

[5] = system: redroot pigweed (Amaranthus retroflexus); assay: Test G Pre-Emergence Protocol; settings: Amaranthus retroflexus, pre-emergence, 312 h, evaluated after 13 days; for pest or weed control at 15.625 g/ha: 15.625 g ai/ha; for pest or weed control at 15.625 g/ha / pest or weed control at 250 g/ha: read-out: Pigweed, Redroot damage rating (100=total damage to plant; 0=no damage to plant); for pest or weed control at 62.5 g/ha: 62.5 g ai/ha, 100=total damage to plant, 0=no damage to plant, read-out: plant damage rating, Pigweed, Redroot; for pest or weed control at 250 g/ha: 250 g ai/ha
How it was run: as §1

[6] = system: velvetleaf (Abutilon theophrasti); assay: Test G Pre-Emergence Protocol; settings: Abutilon theophrasti, pre-emergence, 312 h, evaluated after 13 days; for pest or weed control at 15.625 g/ha: 15.625 g ai/ha; for pest or weed control at 15.625 g/ha / pest or weed control at 250 g/ha: read-out: Velvetleaf damage rating (100=total damage to plant; 0=no damage to plant); for pest or weed control at 62.5 g/ha: 62.5 g ai/ha, 100=total damage to plant, 0=no damage to plant, read-out: plant damage rating, Velvetleaf; for pest or weed control at 250 g/ha: 250 g ai/ha
How it was run: as §1

[7] = system: barnyardgrass (Echinochloa crus-galli); assay: Test G Post-Emergence Protocol; settings: Echinochloa crus-galli, post-emergence, 312 h; for pest or weed control at 15.625 g/ha: 15.625 g ai/ha, evaluated after 13 days (100=total damage to plant; 0=no damage to plant), read-out: Barnyardgrass damage rating; for pest or weed control at 62.5 g/ha: 62.5 g ai/ha, read-out: Barnyardgrass damage rating (100=total damage to plant; 0=no damage to plant); for pest or weed control at 62.5 g/ha / pest or weed control at 250 g/ha: evaluated after 13 days; for pest or weed control at 250 g/ha: 250 g ai/ha, read-out: damage to plant, Barnyardgrass (100=total damage to plant; 0=no damage to plant)
How it was run: (§2)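 Eight days post-sowing, plants received a spray of test compound (acetone/water 50:50, 0.5% Tween 20) at 15.625, 62.5 or 250 g/ha. Glasshouse regime thereafter: 24/16 °C, 14 h light, 65% humidity. Assessment after 13 days on a 0–100 damage scale.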

corn (Zea mays) [8] = assay: Test G Post-Emergence Protocol; settings: Zea mays, post-emergence, 312 h; for plant injury at 15.625 g/ha: 15.625 g ai/ha, evaluated after 13 days (100=total damage to plant; 0=no damage to plant), read-out: Corn damage rating; for plant injury at 62.5 g/ha: 62.5 g ai/ha, read-out: Corn damage rating (100=total damage to plant; 0=no damage to plant); for plant injury at 62.5 g/ha / plant injury at 250 g/ha: evaluated after 13 days; for plant injury at 250 g/ha: 250 g ai/ha, read-out: damage to plant, Corn (100=total damage to plant; 0=no damage to plant)
How it was run: as §2

[9] = system: giant foxtail (Setaria faberi); assay: Test G Post-Emergence Protocol; settings: Setaria faberi, post-emergence, 312 h; for pest or weed control at 15.625 g/ha: 15.625 g ai/ha, evaluated after 13 days (100=total damage to plant; 0=no damage to plant), read-out: Foxtail, Giant damage rating; for pest or weed control at 62.5 g/ha: 62.5 g ai/ha, read-out: Foxtail, Giant damage rating (100=total damage to plant; 0=no damage to plant); for pest or weed control at 62.5 g/ha / pest or weed control at 250 g/ha: evaluated after 13 days; for pest or weed control at 250 g/ha: 250 g ai/ha, read-out: damage to plant, Foxtail, Giant (100=total damage to plant; 0=no damage to plant)
How it was run: as §2

[10] = system: ivy-leaved morning glory (Ipomoea hederacea); assay: Test G Post-Emergence Protocol; settings: Ipomoea, post-emergence, 312 h; for pest or weed control at 15.625 g/ha: 15.625 g ai/ha, evaluated after 13 days (100=total damage to plant; 0=no damage to plant), read-out: Morningglory, Ivy-leaved damage rating; for pest or weed control at 62.5 g/ha: 62.5 g ai/ha, read-out: Morningglory, Ivy-leaved damage rating (100=total damage to plant; 0=no damage to plant); for pest or weed control at 62.5 g/ha / pest or weed control at 250 g/ha: evaluated after 13 days; for pest or weed control at 250 g/ha: 250 g ai/ha, read-out: damage to plant, Morningglory, Ivy-leaved (100=total damage to plant; 0=no damage to plant)
How it was run: as §2

[11] = system: redroot pigweed (Amaranthus retroflexus); assay: Test G Post-Emergence Protocol; settings: Amaranthus retroflexus, post-emergence, 312 h; for pest or weed control at 15.625 g/ha: 15.625 g ai/ha, evaluated after 13 days (100=total damage to plant; 0=no damage to plant), read-out: Pigweed, Redroot damage rating; for pest or weed control at 62.5 g/ha: 62.5 g ai/ha, read-out: Pigweed, Redroot damage rating (100=total damage to plant; 0=no damage to plant); for pest or weed control at 62.5 g/ha / pest or weed control at 250 g/ha: evaluated after 13 days; for pest or weed control at 250 g/ha: 250 g ai/ha, read-out: damage to plant, Pigweed, Redroot (100=total damage to plant; 0=no damage to plant)
How it was run: as §2

[12] = system: velvetleaf (Abutilon theophrasti); assay: Test G Post-Emergence Protocol; settings: Abutilon theophrasti, post-emergence, 312 h; for pest or weed control at 15.625 g/ha: 15.625 g ai/ha, evaluated after 13 days (100=total damage to plant; 0=no damage to plant), read-out: Velvetleaf damage rating; for pest or weed control at 62.5 g/ha: 62.5 g ai/ha, read-out: Velvetleaf damage rating (100=total damage to plant; 0=no damage to plant); for pest or weed control at 62.5 g/ha / pest or weed control at 250 g/ha: evaluated after 13 days; for pest or weed control at 250 g/ha: 250 g ai/ha, read-out: damage to plant, Velvetleaf (100=total damage to plant; 0=no damage to plant)
How it was run: as §2

Structure (SMILES)	pest or weed control at 15.625 g/ha [1]	pest or weed control at 62.5 g/ha [1]	pest or weed control at 250 g/ha [1]	plant injury at 15.625 g/ha (corn (Zea mays) [2])	plant injury at 62.5 g/ha (corn (Zea mays) [2])	plant injury at 250 g/ha (corn (Zea mays) [2])	pest or weed control at 15.625 g/ha [3]	pest or weed control at 62.5 g/ha [3]	pest or weed control at 250 g/ha [3]	pest or weed control at 15.625 g/ha [4]	pest or weed control at 62.5 g/ha [4]	pest or weed control at 250 g/ha [4]	pest or weed control at 15.625 g/ha [5]	pest or weed control at 62.5 g/ha [5]	pest or weed control at 250 g/ha [5]	pest or weed control at 15.625 g/ha [6]	pest or weed control at 62.5 g/ha [6]	pest or weed control at 250 g/ha [6]	pest or weed control at 15.625 g/ha [7]	pest or weed control at 62.5 g/ha [7]	other results
CN1C[C@H](c2cccc(C(F)F)c2)[C@@H](C(=O)Nc2cccc(F)c2F)C1=O (racemic) [Compound 1588]	80%	90%	90%	40%	60%	80%	70%	80%	90%	20%	0%	80%	0%	40%	70%	0%	10%	20%	80%	80%	pest or weed control at 250 g/ha [7]: 80%; plant injury at 15.625 g/ha (corn (Zea mays) [8]): 60%; plant injury at 62.5 g/ha (corn (Zea mays) [8]): 80%; plant injury at 250 g/ha (corn (Zea mays) [8]): 80%; pest or weed control at 15.625 g/ha [9]: 60%; pest or weed control at 62.5 g/ha [9]: 70%; pest or weed control at 250 g/ha [9]: 70%; pest or weed control at 15.625 g/ha [10]: 70%; pest or weed control at 62.5 g/ha [10]: 20%; pest or weed control at 250 g/ha [10]: 50%; pest or weed control at 15.625 g/ha [11]: 0%; pest or weed control at 62.5 g/ha [11]: 0%; pest or weed control at 250 g/ha [11]: 20%; pest or weed control at 15.625 g/ha [12]: 0%; pest or weed control at 62.5 g/ha [12]: 0%; pest or weed control at 250 g/ha [12]: 40%
COc1cc(NC(=O)[C@@H]2C(=O)N(C)C[C@H]2c2ccc(C(F)(F)F)cc2)ccn1 (racemic) [Compound 1589]	0%	0%	0%	0%	0%	0%	0%	0%	0%	0%	0%	0%	0%	0%	0%	0%	0%	0%	0%	0%	pest or weed control at 250 g/ha [7]: 0%; plant injury at 15.625 g/ha (corn (Zea mays) [8]): 0%; plant injury at 62.5 g/ha (corn (Zea mays) [8]): 0%; plant injury at 250 g/ha (corn (Zea mays) [8]): 0%; pest or weed control at 15.625 g/ha [9]: 0%; pest or weed control at 62.5 g/ha [9]: 0%; pest or weed control at 250 g/ha [9]: 0%; pest or weed control at 15.625 g/ha [10]: 0%; pest or weed control at 62.5 g/ha [10]: 0%; pest or weed control at 250 g/ha [10]: 0%; pest or weed control at 15.625 g/ha [11]: 0%; pest or weed control at 62.5 g/ha [11]: 0%; pest or weed control at 250 g/ha [11]: 0%; pest or weed control at 15.625 g/ha [12]: 0%; pest or weed control at 62.5 g/ha [12]: 0%; pest or weed control at 250 g/ha [12]: 0%
